Results: US20240415826A1, “[…] OF A GENE ENCODING AN […] BY TREATING A HUMAN SUBJECT WITH A NITROXIDE” (priority 2021, published 2024)

Experiments:
[1] = test system: UCP2; test: Effects of Tempol on gene expression in cardiac tissue of mice, chip-based microarray; format: in vivo; settings: 5 mg/g of food from 14 to 31 months after birth
Protocol: To assess the effects of Tempol on gene expression, Tempol was administered to experimental mice at a dose of 5 mg/g of food from 14 months to 31 months after birth. Mice receiving the same food without the addition of Tempol were used as a negative control. At the age of 31 months, the experimental animals were sacrificed and the hearts were surgically removed. The expression of a broad spectrum of genes in the cardiac tissue was assessed using chip-based microarray technology. Such chips are well known in the art and are widely used to assess gene expression.

[2] = test system: UCP2; test: Treating a human subject with Tempol, serum level of UCP2 following treatment; format: in vivo; settings: 2000 mg per day for 180 days
Protocol: (§1) A 70-kilogram human subject over the age of 65 is identified as having, or known to have, or suspected of having an increased expression level of UCP2. The human subject is administered a dose of 2000 mg of Tempol (or another nitroxide antioxidant) per day for 180 days. This may be administered in a single dose, or may be administered as a number of smaller doses over a 24-hour period: for example, four 500-mg doses at […]. Following treatment, the serum level of UCP2, is decreased.
as §1, with “subject” for “subject over the age of 65”
as §1, with “65 and having a cardiovascular disease” for “65”, “for an increased expression level of UCP2. Or a 70-kilogram human subject over the age of 65 is” for “as having, or”, “have a cardiovascular disease and/or” for “have, or suspected of having an”
as §1, with “at risk” for “over the age”, “developing colorectal cancer” for “65”, “for increased expression level of UCP2. Or a 70-kilogram human subject is” for “as having, or”, “be at risk” for “have, or suspected”, “developing colorectal cancer and/or have” for “having an”
A 70-kilogram human subject at risk of developing an autoimmune disease (e.g., rheumatoid arthritis) is identified for increased expression level of UCP2. Or a 70-kilogram human subject is known to be at risk of developing an autoimmune disease and/or have increased expression level of UCP2. The human subject is administered a dose of 2000 mg of Tempol (or another nitroxide antioxidant) per day for 180 days. This may be administered in a single dose, or may be administered as a number of smaller doses over a 24-hour period: for example, four 500-mg doses at […]. Following treatment, the serum level of UCP2, is decreased.
A 70-kilogram human subject of person at risk of developing a condition due to aging is identified. Or a 70-kilogram human subject of person is known to be at risk of developing a condition. The human subject is administered a dose of 2000 mg of Tempol (or another nitroxide antioxidant) per day for 180 days. This may be administered in a single dose, or may be administered as a number of smaller doses over a 24-hour period: for example, four 500-mg doses at […]. Following treatment, the serum level of UCP2, is decreased.
A 70-kilogram human subject at risk of developing a neurodegenerative disease (e.g., Parkinson's Disease) is identified for increased expression level of UCP2. Or a 70-kilogram human subject is known to be at risk of developing a neurodegenerative disease and/or have increased expression level of UCP2. The human subject is administered a dose of 2000 mg of Tempol (or another nitroxide antioxidant) per day for 180 days. […]

SMILES: CC1(C)CC(O)CC(C)(C)N1[O] [Tempol, 4-hydroxy-2,2,6,6-tetramethylpiperidine-1-oxyl]
- Fold change (UCP2 expression in cardiac tissue after Tempol administration) ([1]; hearts at 31 months, vs. same food without Tempol, P-value 0.012): −1.61
- UCP2 expression in cardiac tissue (result in words) ([1]; microarray): statistically significant decrease in expression
- serum level of UCP2 following treatment ([2]; Example 2: 70-kilogram human subject over the age of 65 with increased UCP2 expression): decreased
- serum level of UCP2 following treatment ([2]; Example 3: 70-kilogram human subject with increased UCP2 expression): decreased
- serum level of UCP2 following treatment ([2]; Example 4: human subject over the age of 65 having a cardiovascular disease): decreased
- serum level of UCP2 following treatment ([2]; Example 5: human subject at risk of developing colorectal cancer): decreased
- serum level of UCP2 following treatment ([2]; Example 6: human subject at risk of developing an autoimmune disease): decreased
- serum level of UCP2 following treatment ([2]; Example 7: human subject at risk of developing a condition due to aging): decreased
- serum level of UCP2 following treatment ([2]; Example 8: human subject at risk of developing a neurodegenerative disease): decreased
- serum level of UCP2 following treatment ([2]; Example 9: human subject having an infection): decreased
